Marks after values point to notes of the source that are not given here.
What was measured:
Type in all cases: cell-based, Chinese hamster
rCHO-1 cells [1] = assay: Suspension culture of rCHO-1 cells: density of live cells, growth and longevity (hemocytometer, trypan blue dye exclusion)
From the text: (§1) Two recombinant CHO DG44 cell lines (hereinafter referred to as “rCHo-1” and “rCHO-2”) were used for monoclonal antibody (mAB) production. Each cell line was passaged 8 times or more and suspension adapted in a protein-free medium (HY-PFM, in-house) or chemically defined medium (HY-CDM, in-house). The suspension-adapted cell line was used to evaluate how the concentrations of trace elements, the selection of an effective trace element, and the concentration of ZnSO4.7H2O (Zn) affected the growth of cells and the production of antibody in commercial chemically defined media.
(§2) The cell line was inoculated at a density of 4×10^5 cells/ml and cultured in an Erlenmeyer flask with a 30 ml/125 ml working volume on an orbital shaker at 120 rpm under humidified conditions at 37° C. and 5% CO2. Before inoculation, the cells were centrifuged at 1,000 rpm (×162 g) for 5 min, the supernatant was discarded, and the remaining cells were dispersed into single cells in the heated medium. The cells were passaged three times to minimize the influence of the remaining medium under the experimental conditions. The subcultured cells were evaluated.
The density of live cells was analyzed using a hemocytometer (Neubauer improved bright-line, Marienfeld, Germany), an inverted microscope (CK30, Olympus, Japan), and trypan blue dye exclusion.

rCHO-2 cells = assay: Suspension culture of rCHO-2 cells: antibody level by sandwich ELISA; conditions: HY-CDM, Zn around 60-75 μM
From the text: as §1
The cell line was inoculated at a density of 4×10^5 cells/ml and cultured in an Erlenmeyer flask with a 30 ml/125 ml working volume on an orbital shaker at 120 rpm under humidified conditions at 37° C. and 5% CO2. […] The subcultured cells were evaluated.
4, 6, 8, 10, and 12 days after cells were inoculated under the experimental conditions, cell culture fluids were sampled, centrifuged at 1,000 rpm (×162 g) for 5 min, and stored at −20° C. before antibody analysis. Antibody levels were measured by sandwich enzyme linked immunosorbent assay (ELISA). […] For antibody level analysis, absorbance values were measured at a wavelength of 450 nm using a kinetic microplate reader (Molecular Devices, Sunnyvale, Calif., USA).

rCHO-1 cells [2] = assay: Suspension culture of rCHO-1 cells: antibody level by sandwich ELISA
From the text: as §1, §2
4, 6, 8, 10, and 12 days after cells were inoculated under the experimental conditions, cell culture fluids were sampled, centrifuged at 1,000 rpm (×162 g) for 5 min, and stored at −20° C. before antibody analysis. Antibody levels were measured by sandwich enzyme linked immunosorbent assay (ELISA). For the detection of mAB by ELISA, anti-human IgG (Fab specific) (I5260, Sigma, St. Louis, Mo., USA) was used as a primary antibody and human IgG (Fc specific)-horseradish peroxidase (A0170, Sigma) was used as a chromogenic antibody. 1% (w/v) bovine serum albumin/phosphate buffered saline was used for blocking, 3,3′,5,5′-tetramethylbenzidine (TMB) solution (KPL, Gaithersburg, Md., USA) was used as a chromogenic reagent. The chromogenic reaction was stopped with 2 M H2SO4. For antibody level analysis, absorbance values were measured at a wavelength of 450 nm using a kinetic microplate reader (Molecular Devices, Sunnyvale, Calif., USA).

[3] = HY-PFM, trace element individually added in 20-fold amount of control
[4] = commercial CDM-1, 2 and 3, Zn ions enhanced to 60 μM
[5] = HY-CDM, Zn around 60-75 μM, rCHO-1

**Q.** Which “cell longevity (cell viability of 80%), times higher than control group” value (rCHO-1 cells [1]; HY-CDM, Zn 60 μM) does the source give for `O.O.O.O.O.O.O.O=S(=O)([O-])[O-].[Zn+2]` [Zn, ZnSO4.7H2O] here?
**A.** 1.8 times

**Q.** What about the live cell densities (rCHO-1 cells [1]; HY-PFM and HY-CDM, Zn 60 μM) of the same molecule?
**A.** 9×10^6 cells/ml

**Q.** What about the “period for which live cell density was maintained during cell culture” value (rCHO-1 cells [1]; HY-PFM and HY-CDM, Zn 60 μM) of the same molecule?
**A.** at least 9 days

**Q.** What about the “cell longevity (cell viability of 80%), times higher than control group” value (rCHO-1 cells [1]; HY-PFM, Zn 60 μM) of the same molecule?
**A.** 1.4 times

**Q.** And the maximum cell density (rCHO-1 cells [1]; [3])?
**A.** 1.1×10^7 cells/ml

**Q.** What about the “Cell longevity (day/80% viability)” value (rCHO-1 cells [1]; Zn 3 μM (control level), CDM) of the same molecule?
**A.** 5.1 ± 0.0 days

**Q.** What about the μ (rCHO-1 cells [1]; Zn 3 μM (control level), CDM) of the same molecule?
**A.** 1.01 ± 0.04 day⁻¹

**Q.** And the “Cell longevity (day/80% viability)” value (rCHO-1 cells [1]; Zn 3 μM (control level), PFM)?
**A.** 6.2 ± 0.0 days

**Q.** And the μ (rCHO-1 cells [1]; Zn 3 μM (control level), PFM)?
**A.** 0.87 ± 0.01 day⁻¹

**Q.** And the “Cell longevity (day/80% viability)” value (rCHO-1 cells [1]; Zn 60 μM, CDM)?
**A.** 9.3 ± 0.4 days

**Q.** And the μ (rCHO-1 cells [1]; Zn 60 μM, CDM)?
**A.** 1.00 ± 0.00 day⁻¹

**Q.** What about the “Cell longevity (day/80% viability)” value (rCHO-1 cells [1]; Zn 60 μM, PFM) of the same molecule?
**A.** 8.5 ± 0.2 days

**Q.** And the μ (rCHO-1 cells [1]; Zn 60 μM, PFM)?
**A.** 0.90 ± 0.02 day⁻¹

**Q.** And the “inhibitory effect on cell growth” value (rCHO-1 cells [1]; Zn ion concentration enhanced to 30-60 μM, recombinant CHO cell lines)?
**A.** no inhibitory effect on cell growth

**Q.** What about the “inhibition of cell growth” value (rCHO-1 cells [1]; [4]) of the same molecule?
**A.** No inhibition of cell growth was observed

**Q.** What about the “antibody production compared to control group” value (rCHO-2 cells) of the same molecule?
**A.** 1.3 fold

**Q.** What about the “antibody production rate (maximum)” value (rCHO-2 cells) of the same molecule?
**A.** 210 mg/L

**Q.** What about the “qmAB at the initial stage of cell culture (0-4 days)” value (rCHO-1 cells [2]; HY-CDM, Zn 60 μM) of the same molecule?
**A.** 5.1 pcd

**Q.** What about the “antibody production compared to control group” value (rCHO-1 cells [2]; [5]) of the same molecule?
**A.** 6.6 fold

**Q.** And the “antibody production rate (maximum)” value (rCHO-1 cells [2]; [5])?
**A.** 440 mg/L

**Q.** And the “increase in antibody production compared to control group” value (rCHO-1 cells [2]; HY-PFM and HY-CDM, Zn 60 μM)?
**A.** ≥ 2 fold

**Q.** And the “qmAB at the initial stage (0-4 days), times those in control group” value (rCHO-1 cells [2]; HY-PFM and HY-CDM, Zn 60 μM vs 3 μM)?
**A.** at least 1.7 times

**Q.** And the “qmAB at the initial stage of cell culture (0-4 days)” value (rCHO-1 cells [2]; HY-PFM, Zn 60 μM)?
**A.** 9.4 pcd

**Q.** What about the “antibody production (maximum)” value (rCHO-1 cells [2]; HY-PFM, Zn 45-60 μM) of the same molecule?
**A.** 360 mg/L

**Q.** What about the “antibody production relative to control group” value (rCHO-1 cells [2]; HY-PFM, Zn 45-60 μM vs control (3 μM)) of the same molecule?
**A.** twice

**Q.** What about the maximum antibody level (rCHO-1 cells [2]; [3]) of the same molecule?
**A.** 260 mg/L

**Q.** What about the “qmAB (ped, 0-4 days)” value (rCHO-1 cells [2]; Zn 3 μM (control level), CDM) of the same molecule?
**A.** 3.07 ± 0.19 ped

**Q.** And the “qmAB (ped, 4-8 days)” value (rCHO-1 cells [2]; Zn 3 μM (control level), CDM, calculated from the results obtained 4-6 days after cell culture)?
**A.** 1.47 ± 0.10^a ped

**Q.** What about the “qmAB (ped, 0-4 days)” value (rCHO-1 cells [2]; Zn 3 μM (control level), PFM) of the same molecule?
**A.** 4.99 ± 0.13 ped

**Q.** And the “qmAB (ped, 4-8 days)” value (rCHO-1 cells [2]; Zn 3 μM (control level), PFM)?
**A.** 1.75 ± 0.01 ped

**Q.** And the “qmAB (ped, 0-4 days)” value (rCHO-1 cells [2]; Zn 60 μM, CDM)?
**A.** 5.06 ± 0.07 ped

**Q.** And the “qmAB (ped, 4-8 days)” value (rCHO-1 cells [2]; Zn 60 μM, CDM)?
**A.** 3.30 ± 0.01 ped

**Q.** What about the “qmAB (ped, 0-4 days)” value (rCHO-1 cells [2]; Zn 60 μM, PFM) of the same molecule?
**A.** 9.35 ± 0.11 ped

**Q.** And the “qmAB (ped, 4-8 days)” value (rCHO-1 cells [2]; Zn 60 μM, PFM)?
**A.** 3.74 ± 0.04 ped

**Q.** What about the “effectiveness in producing antibody by batch culture” value (rCHO-1 cells [2]; Zn ion concentration enhanced to 30-90 μM, recombinant CHO cell lines) of the same molecule?
**A.** very effective in producing antibody by batch culture

**Q.** And the “specific production rates of antibody” value (rCHO-1 cells [2]; Zn ions enhanced to 30 μM, protein-free and chemically defined media, recombinant CHO cell lines)?
**A.** improved

**Q.** And the “qmAB at the late stage (4-8 days), times higher than control group” value (rCHO-1 cells [2]; both media (HY-PFM, HY-CDM), Zn 60 μM vs 3 μM)?
**A.** 2.1 times

**Q.** What about the “antibody productivities, times higher than control group” value (rCHO-1 cells [2]; [4]) of the same molecule?
**A.** 1.2-1.5 times

**Q.** And the “cell growth and antibody production” value (rCHO-1 cells [2]; commercial CDM-4 (CD OptiCHO), Zn ions enhanced to 60 μM)?
**A.** only continuous cell growth and antibody production was observed
